Assay results: patent publication US9782484B2, “Method for producing a composite organic compound powder for medical use” (ACTIVUS PHARMA CO., LTD., priority 2008, dated 2017)

What was measured:
[1] = Size distribution of particles in suspension by particle size distribution analyzer (Delsa Nano S); format: physicochemical; conditions: starting compound suspended with 0.03% sodium lauryl sulfate
Experimental: Fine-pulverizing experiments will now be described in each of which a carboxyvinyl polymer and a lecithin were added. The average particle diameter before and after fine-pulverizing for a powder was measured using a BET type specific surface area analyzer (Macsorb model HM-1201, from Mountech Co., Ltd.). The particle diameter of particles in a suspension was measured using a particle size distribution analyzer (Delsa Nano S, from Beckman Coulter, Inc.). “D50” is the diameter of a particle having an integrated value of 50% as counted in order of decreasing particle size (or in order of increasing particle size) (called “median particle diameter”) in the size distribution. “D90” is the diameter of a particle having an integrated value of 90% as counted in order of increasing particle size (called “90% median diameter”) in the size distribution. “Dv” is the volume average diameter (called “average particle diameter”).
An experiment of improving a collection efficiency by addition of a lecithin to fine-pulverized particles will now be described. Unless otherwise stated, the average particle diameter of particles was measured using a BET type specific surface area analyzer (Macsorb model HM-1201, from Mountech Co., Ltd.). The particle diameter of particles in a suspension was measured using a particle size distribution analyzer (Delsa Nano S, from Beckman Coulter, Inc.). “D50” is the diameter of a particle having an integrated value of 50% as counted in order of decreasing particle size (or in order of increasing particle size) (called “median particle diameter”) in the size distribution. “D90” is the diameter of a particle having an integrated value of 90% as counted in order of increasing particle size (called “90% median diameter”) in the size distribution. “Dv” is the volume average diameter (called “average particle diameter”).

[2] = Average particle diameter of dried powder converted from BET specific surface area; format: physicochemical; conditions: starting organic compound powder, Table 1 and text
Experimental: According to the present invention, the “average particle diameter converted from the BET specific surface area” is calculated by converting a value of the specific surface area measured by the BET flow method (one-point type) to the diameter of a hypothetical spherical particle. The following formula 1 is a conversion formula for converting a value of the specific surface area to the diameter. Here, D is an average particle diameter, ρ is a solid density, S is a specific surface area, and α is a shape factor. α is 6 for spherical particles. D=α/(ρ·S) (formula 1)
The BET flow method is preferably a method for measuring the specific surface area by the following procedure. A mixed gas of nitrogen and helium is flowed into a cell in which a sample to be measured is placed, followed by cooling the sample with liquid nitrogen. Then, only nitrogen gas adsorbs to the surface of the sample. Subsequently, when the cell is returned to ordinary temperature, the desorption of the gas occurs. During the desorption of gas, the proportion of nitrogen gas in the mixed gas flowing through one detector becomes larger than the proportion of nitrogen gas flowing through another detector. The difference between signals from these detectors represents the adsorption amount, enabling the measurement of the specific surface area.
Fine-pulverizing experiments are first described in each of which a carboxyvinyl polymer was added. The average particle diameter before and after fine-pulverizing for a dried powder was calculated by converting, by the above-described formula 1, the BET specific surface area measured using a BET type specific surface area analyzer (Macsorb model […], from Mountech Co., Ltd.). The observation of the powder before and after fine-pulverizing was carried out using a scanning electron microscope (model SEM VE-7800, from Keyence Corporation).
Fine-pulverizing experiments will now be described in each of which a carboxyvinyl polymer and a lecithin were added. The average particle diameter before and after fine-pulverizing for a powder was measured using a BET type specific surface area analyzer (Macsorb model HM-1201, from Mountech Co., Ltd.). The particle diameter of particles in a suspension was measured using a particle size distribution analyzer (Delsa Nano S, from Beckman Coulter, Inc.). “D50” is the diameter of a particle having an integrated value of 50% as counted in order of decreasing particle size (or in order of increasing particle size) (called “median particle diameter”) in the size distribution. “D90” is the diameter of a particle having an integrated value of 90% as counted in order of increasing particle size (called “90% median diameter”) in the size distribution. “Dv” is the volume average diameter (called “average particle diameter”). […]

Structure (SMILES) | 90% median diameter (D90) before fine-pulverizing [1] | average particle diameter (Dv) before fine-pulverizing [1] | median particle diameter (D50) before fine-pulverizing [1] | Average Particle Diameter before Fine-pulverizing [2]
Nc1nc2c(ncn2COCCO)c(=O)[nH]1 [aciclovir] | 69,371 nm | 60,371 nm | 52,997 nm | –
C[C@@H]1[C@H](O)[C@@H](C)/C=C/C=C/C=C/C=C/C=C/C=C/C=C/[C@H](O[C@@H]2O[C@H](C)[C@@H](O)[C@H](N)[C@@H]2O)C[C@@H]2O[C@](O)(C[C@@H](O)C[C@@H](O)[C@H](O)CC[C@@H](O)C[C@@H](O)CC(=O)O[C@H]1C)C[C@H](O)[C@H]2C(=O)O [amphotericin B] | 15,181 nm | 13,423 nm | 11,843 nm | –
O=C(O)Cc1ccc(-c2ccccc2)cc1 [felbinac] | – | – | – | 34,000 nm
CCC(=O)O[C@]1(C(=O)SCF)[C@H](C)C[C@H]2[C@@H]3C[C@H](F)C4=CC(=O)C=C[C@]4(C)[C@@]3(F)[C@@H](O)C[C@@]21C [fluticasone propionate] | – | – | – | 7,850 nm
COc1ccc2c(c1)c(CC(=O)O)c(C)n2C(=O)c1ccc(Cl)cc1 [indomethacin] | – | – | – | 3,960 nm
Clc1ccc(COC(Cn2ccnc2)c2ccc(Cl)cc2Cl)c(Cl)c1 (stereo not shown) [miconazole] | – | – | – | 10,900 nm
